In US11472778B2, “Hepatitis C virus NS3/4A protease inhibitors” (priority 2017, dated 2022):
Where two headings read alike, the source gives them in different places.

Legend:
[1] = tested on: wild-type HCV replicon in Huh7 cells; test: Cell-based drug susceptibility (replicon) assay, wild-type; details: Hepatitis C virus, read-out: Replicon EC50 (nM) WT
Description: (§1) Mutations (R155K, A516T, D168A and D168V) were constructed by site-directed mutagenesis using a Con1 (genotype 1b) luciferase reporter replicon containing the H77 (genotype 1a) NS3 sequence.
(§2) Replicon RNA of each protease variant was introduced into Huh7 cells by electroporation. Replication was then assessed in the presence of increasing concentrations of protease inhibitors by measuring luciferase activity (relative light units) 96 h after electroporation.
(§3) Mutations (R155K, D168A and A156T) were constructed by site-directed mutagenesis using a Con1 (genotype 1b) luciferase reporter replicon containing the H77 (genotype 1a) NS3 sequence.^6 Replicon RNA of each protease variant was introduced into Huh7 cells by electroporation. Replication was then assessed in the presence of increasing concentrations of protease inhibitors by measuring luciferase activity (relative light units) 96 h after electroporation.

[2] = tested on: HCV replicon A156T variant in Huh7 cells; test: microbe, parasite or virus in culture; format: cell-based, Hepatitis C virus; details: for Replicon EC50 (Fold change) A156T: Table 4, relative to WT replicon
Description: as §1, §2, §3

[3] = tested on: HCV replicon D168A variant in Huh7 cells; test: microbe, parasite or virus in culture; format: cell-based, Hepatitis C virus; details: for EC50: Hepatitis C virus; for Replicon EC50 (Fold change) D168A: Table 4, relative to WT replicon
Description: as §1, §2, §3

[4] = tested on: HCV replicon R155K variant in Huh7 cells; test: microbe, parasite or virus in culture; format: cell-based, Hepatitis C virus; details: for EC50: Hepatitis C virus; for Replicon EC50 (Fold change) R155K: Table 4, relative to WT replicon
Description: as §1, §2, §3

[5] = tested on: HCV replicon D168V variant in Huh7 cells; test: microbe, parasite or virus in culture; format: cell-based, Hepatitis C virus; details: for EC50: Hepatitis C virus; for Replicon EC50 (Fold change) D168V: Table 4, relative to WT replicon
Description: as §1
Replicon RNA of each protease variant was introduced into Huh7 cells by electroporation. Replication was then assessed in the presence of increasing concentrations of protease inhibitors by measuring luciferase activity (relative light units) 96 h after electroporation. […]

[6] = target: T1, GT1a D168A NS3/4A protease (UniProt P27958, C1185S/D1194A, species not given); format: biochemical, Hepatitis C virus; details: read-out: Ki (nM) GT1a D168A NS3/4A Protease
T1 construct: Ki (nM) GT1a D168A NS3/4A Protease
Description: (§4) For each assay, 2 nM of NS3/4A protease (GT1, D168A and GT3) was pre-incubated at room temperature for 1 h with increasing concentration of inhibitors in assay buffer [50 mM Tris, 5% glycerol, 10 mM DTT, 0.6 mM LDAO, and 4% dimethyl sulfoxide]. Inhibition assays were performed in nonbinding surface 96-well black half-area plates (Corning) in a reaction volume of 60 μt. […] Three independent data sets were collected for each inhibitor with each protease construct.
(§5) For each assay, 2 nM of NS3/4A protease (GT1a and D168A) was pre-incubated at room temperature for 1 h with increasing concentration of inhibitors in assay buffer (50 mM Tris, 5% glycerol, 10 mM DTT, 0.6 mM LDAO, and 4% dimethyl sulfoxide, pH 7.5). Inhibition assays were performed in non-binding surface 96-well black half-area plates (Corning) in a reaction volume of 60 μL. […] Three independent data sets were collected for each inhibitor with each protease construct.
(§6) For each assay, 2 nM of NS3/4A protease (GT1a, R155K and D168A) was pre-incubated at room temperature for 1 h with increasing concentration of inhibitors in assay buffer (50 mM Tris, 5% glycerol, 10 mM DTT, 0.6 mM LDAO, and 4% dimethyl sulfoxide, pH 7.5). Inhibition assays were performed in non-binding surface 96-well black half-area plates (Corning) in a reaction volume of 60 μL. […] Three independent data sets were collected for each inhibitor with each protease construct. […] Gibbs free energy of binding was calculated using the following equation: ΔG=RTlnKi

[7] = target: GT1a D168A NS3/4A protease; format: biochemical, Hepatitis C virus; details: Table 3; Ki D168A relative to GT1a WT
Description: as §4, §5, §6

[8] = target: T2, wild-type GT1a NS3/4A protease (UniProt P27958, C1185S, species not given); format: biochemical, Hepatitis C virus; details: read-out: Ki (nM) GT1a WT NS3/4A Protease
T2 construct: Ki (nM) GT1a WT NS3/4A Protease
Description: as §4, §5, §6

[9] = Huh-7, read-out: Replicon EC50 (nM) D168A, Table 4
[10] = Huh-7, read-out: Replicon EC50 (nM) R155K, Table 4
[11] = Huh-7, read-out: Replicon EC50 (nM) D168V, Table 4
[12] = Huh-7, 96 h, Table 2, Huh7 cells, luciferase 96 h
[13] = Hepatitis C virus, Huh-7, 96 h, read-out: Replicon EC50 (nM) A156T, Table 2, Huh7 cells, luciferase 96 h
[14] = Hepatitis C virus, Huh-7, read-out: Replicon EC50 (nM) A156T, Table 4
[15] = Huh-7, 96 h, read-out: Replicon EC50 (nM) D168A, Table 2, Huh7 cells, luciferase 96 h
[16] = Huh-7, 96 h, read-out: Replicon EC50 (nM) R155K, Table 2, Huh7 cells, luciferase 96 h
[17] = Huh-7, 96 h, read-out: Replicon EC50 (nM) D168V, Table 2, Huh7 cells, luciferase 96 h

SMILES | EC50 ([1]; Huh-7, Table 4) [nM] | EC50 [3, 9] [nM] | EC50 [4, 10] [nM] | EC50 [5, 11] [nM] | Ki ([6]; Table 1) [nM] | Ki ([6]; Table 3) [nM] | Ki (Fold change) GT1a D168A NS3/4A Protease [7] | Ki ([8]; Table 1) [nM] | Ki ([8]; Table 3) [nM] | EC50 [1, 12] [nM] | EC50 [2, 13] [nM] | EC50 [2, 14] [nM] | Replicon EC50 (Fold change) A156T [2] | EC50 [3, 15] [nM] | Replicon EC50 (Fold change) D168A [3] | EC50 [4, 16] [nM] | Replicon EC50 (Fold change) R155K [4] | EC50 [5, 17] [nM] | Replicon EC50 (Fold change) D168V [5] | other results
C=C[C@@H]1C[C@]1(NC(=O)[C@@H]1C[C@@H]2CN1C(=O)[C@H](C(C)(C)C)NC(=O)O[C@@H]1C[C@H]1CCCCCc1nc3ccc(OC)cc3nc1O2)C(=O)NS(=O)(=O)C1CC1 [Compound 1, grazoprevir, reference compound] | 0.14 | 9.69 | 1.89 | 5.41 |  |  |  |  |  |  |  |  |  |  |  |  |  |  |  | EC50 ([1]; Huh-7, Table 9): 0.12 nM; EC50 ([2]; Hepatitis C virus, Huh-7, read-out: Replicon EC50 (nM) A156T, Table 9): 200 nM; EC50 ([2]; read-out: Replicon EC50 (nM) A156T, Table 2, Huh7 cells, luciferase 96 h): 238 nM; EC50 ([3]; Huh-7, read-out: Replicon EC50 (nM) D168A, Table 9): 11 nM; EC50 ([4]; Huh-7, read-out: Replicon EC50 (nM) R155K, Table 9): 1.9 nM; EC50 ([5]; Huh-7, read-out: Replicon EC50 (nM) D168V, Table 9): 5.3 nM
COc1ccc2nc(C(C)C)c(O[C@@H]3C[C@H]4C(=O)N[C@]5(C(=O)NS(=O)(=O)C6CC6)C[C@H]5/C=C\CCCCC[C@H](NC(=O)OC(C)(C)C)C(=O)N4C3)nc2c1 [Compound 18e] | 1.43 | 15.3 | 5.02 | 23.7 | 239 | 239 ± 20 | (56) fold | 4.27 | 4.27 | 1.43 | 25.7 | 25.7 | (18) fold | 15.3 | (11) fold | 5.02 | (4) fold | 23.7 | (17) fold | 
COc1ccc2nc(C(C)C)c(O[C@@H]3C[C@H]4C(=O)N[C@]5(C(=O)NS(=O)(=O)C6CC6)C[C@H]5/C=C\CCCCC[C@H](NC(=O)OC5CCCC5)C(=O)N4C3)nc2c1 [Compound 22e, Cyclopentyl ((2R,6S,13aS,14aR,16aS,Z)-14a-((cyclopropylsulfonyl)carbamoyl)-2-((3-isopropyl-7-methoxyquinoxalin-2-yl)oxy)-5,16-dioxo-1,2,3,5,6,7,8,9,10,11,13a,14,14a,15,16,16a-hexadecahydrocyclopropa[e]pyrrolo[1,2-a][1,4]diazacyclopentadecin-6-yl)carbamate] | 0.48 | 7.96 | 7.63 | 30.1 | 161 | 161 ± 11 | (112) fold | 1.44 | 1.44 | 0.48 | 32.1 | 32.1 | (67) fold | 7.96 | (17) fold | 7.63 | (16) fold | 30.1 | (63) fold | 
O=C(N[C@H]1CCCCC/C=C\[C@@H]2C[C@@]2(C(=O)NS(=O)(=O)C2CC2)NC(=O)[C@@H]2C[C@@H](Oc3nc4ccccc4nc3-c3cccs3)CN2C1=O)OC1CCCC1 [Compound 22f, Cyclopentyl ((2R,6S,13aS,14aR,16aS,Z)-14a-((cyclopropylsulfonyl)carbamoyl)-5,16-dioxo-2-((3-(thiophen-2-yl)quinoxalin-2-yl)oxy)-1,2,3,5,6,7,8,9,10,11,13a,14,14a,15,16,16a-hexadecahydrocyclopropa[e]pyrrolo[1,2-a][1,4]diazacyclopentadecin-6-yl)carbamate] | 0.4 | 42.2 | 19.2 | 70 | 900 | 900 ± 81 | (566) fold | 1.59 | 1.59 | 0.4 | 183 | 183 | (458) fold | 42.2 | (106) fold | 19.2 | (48) fold | 70 | (175) fold | 
CCc1nc2ccccc2nc1O[C@@H]1C[C@H]2C(=O)N[C@]3(C(=O)NS(=O)(=O)C4CC4)C[C@H]3/C=C\CCCCC[C@H](NC(=O)OC3CCCC3)C(=O)N2C1 [Compound 22g, Cyclopentyl ((2R,6S,13aS,14aR,16aS,Z)-14a-((cyclopropylsulfonyl)carbamoyl)-2-((3-ethylquinoxalin-2-yl)oxy)-5,16-dioxo-1,2,3,5,6,7,8,9,10,11,13a,14,14a,15,16,16a-hexadecahydrocyclopropa[e]pyrrolo[1,2-a][1,4]diazacyclopentadecin-6-yl)carbamate] | 0.24 | 7.5 | 4.28 | 19.3 | 107 | 107 ± 7 | (54) fold | 1.99 | 1.99 | 0.24 | 24.6 | 24.6 | (103) fold | 7.5 | (31) fold | 4.28 | (18) fold | 19.3 | (80) fold | 
